According to ChEMBL document CHEMBL3045546, “Synthesis and antimicrobial screening of 4-thiazolidinone and 2-azetidinone derivatives of piperazine” (2013):
In brackets after ≈: the same amount, converted by molar mass.

Legend:
Assay type in all cases: functional
Aspergillus fumigatus = experiment: Antimicrobial activity against Aspergillus fumigatus assessed as growth inhibition by broth dilution method
Staphylococcus hominis = experiment: Antimicrobial activity against Staphylococcus hominis ATCC 27844 assessed as growth inhibition by broth dilution method
Trichophyton longifusum = experiment: Antimicrobial activity against Trichophyton longifusum ATCC 22397 assessed as growth inhibition by broth dilution method
[1] = system: Staphylococcus epidermidis; experiment: Antimicrobial activity against Staphylococcus epidermidis ATCC 12228 assessed as growth inhibition by broth dilution method
Proteus mirabilis = experiment: Antimicrobial activity against Proteus mirabilis ATCC 49565 assessed as growth inhibition by broth dilution method
Pseudomonas aeruginosa = experiment: Antimicrobial activity against Pseudomonas aeruginosa ATCC 10145 assessed as growth inhibition by broth dilution method
Aspergillus awamori = experiment: Antimicrobial activity against Aspergillus awamori ATCC 22342 assessed as growth inhibition by broth dilution method
Fusarium solani = experiment: Antimicrobial activity against Fusarium solani ATCC 38136 assessed as growth inhibition by broth dilution method
Escherichia coli = experiment: Antimicrobial activity against Escherichia coli ATCC 25922 assessed as growth inhibition by broth dilution method
Micrococcus luteus = experiment: Antimicrobial activity against Micrococcus luteus ATCC 4698 assessed as growth inhibition by broth dilution method
Bacillus pumilus = experiment: Antimicrobial activity against Bacillus pumilus ATCC 14884 assessed as growth inhibition by broth dilution method
Aspergillus niger = experiment: Antimicrobial activity against Aspergillus niger ATCC 9142 assessed as growth inhibition by broth dilution method
Candida albicans = experiment: Antimicrobial activity against Candida albicans ATCC 10231 assessed as growth inhibition by broth dilution method
Proteus vulgaris = experiment: Antimicrobial activity against Proteus vulgaris ATCC 13315 assessed as growth inhibition by broth dilution method
Klebsiella pneumoniae = experiment: Antimicrobial activity against Klebsiella pneumoniae ATCC 13883 assessed as growth inhibition by broth dilution method
Alternaria alternata = experiment: Antimicrobial activity against Alternaria alternata ATCC 66868 assessed as growth inhibition by broth dilution method
Salmonella typhi = experiment: Antimicrobial activity against Salmonella enterica subsp. enterica serovar Typhi ATCC 19430 assessed as growth inhibition by broth dilution method
Aspergillus flavus = experiment: Antimicrobial activity against Aspergillus flavus ATCC 15517 assessed as growth inhibition by broth dilution method
Staphylococcus aureus = experiment: Antimicrobial activity against Staphylococcus aureus ATCC 25923 assessed as growth inhibition by broth dilution method
Bacillus subtilis = experiment: Antimicrobial activity against Bacillus subtilis ATCC 6633 assessed as growth inhibition by broth dilution method
Bacillus cereus = experiment: Antimicrobial activity against Bacillus cereus ATCC 11778 assessed as growth inhibition by broth dilution method
Trichoderma viride = experiment: Antimicrobial activity against Hypocrea rufa ATCC 52440 assessed as growth inhibition by broth dilution method
Rhizoctonia solani = experiment: Antimicrobial activity against Rhizoctonia solani ATCC 76131 assessed as growth inhibition by broth dilution method
Microsporum canis = experiment: Antimicrobial activity against Arthroderma otae ATCC 11622 assessed as growth inhibition by broth dilution method

SMILES | MIC (Aspergillus fumigatus) | MIC (Staphylococcus hominis) | MIC (Trichophyton longifusum) | MIC [1] | MIC (Proteus mirabilis) | MIC (Pseudomonas aeruginosa) | MIC (Aspergillus awamori) | MIC (Fusarium solani) | MIC (Escherichia coli) | MIC (Micrococcus luteus) | MIC (Bacillus pumilus) | MIC (Aspergillus niger) | MIC (Candida albicans) | MIC (Proteus vulgaris) | MIC (Klebsiella pneumoniae) | MIC (Alternaria alternata) | MIC (Salmonella typhi) | MIC (Aspergillus flavus) | MIC (Staphylococcus aureus) | MIC (Bacillus subtilis) | also measured
O=C1CSC(c2ccccc2O)N1CCN1CCNCC1 (centres undefined) | 150 µg/mL (≈ 488 µM) | 75 µg/mL (≈ 244 µM) | 300 µg/mL (≈ 976 µM) | 75 µg/mL (≈ 244 µM) | 150 µg/mL (≈ 488 µM) | 75 µg/mL (≈ 244 µM) | 300 µg/mL (≈ 976 µM) | 300 µg/mL (≈ 976 µM) | 75 µg/mL (≈ 244 µM) | 150 µg/mL (≈ 488 µM) | 150 µg/mL (≈ 488 µM) | 300 µg/mL (≈ 976 µM) | 150 µg/mL (≈ 488 µM) | 150 µg/mL (≈ 488 µM) | 75 µg/mL (≈ 244 µM) | 150 µg/mL (≈ 488 µM) | 75 µg/mL (≈ 244 µM) | 150 µg/mL (≈ 488 µM) | 150 µg/mL (≈ 488 µM) | 75 µg/mL (≈ 244 µM) | MIC (Bacillus cereus): 75 µg/mL (≈ 244 µM); MIC (Trichoderma viride): 300 µg/mL (≈ 976 µM); MIC (Rhizoctonia solani): 150 µg/mL (≈ 488 µM); MIC (Microsporum canis): 300 µg/mL (≈ 976 µM)
O=C(CCl)N1CCN(CCN2C(=O)C(Cl)C2c2ccccc2)CC1 (centres undefined) | 75 µg/mL (≈ 203 µM) | 37.5 µg/mL (≈ 101 µM) | 37.5 µg/mL (≈ 101 µM) | 37.5 µg/mL (≈ 101 µM) | 18.8 µg/mL (≈ 50.6 µM) | 18.8 µg/mL (≈ 50.6 µM) | 75 µg/mL (≈ 203 µM) | 75 µg/mL (≈ 203 µM) | 37.5 µg/mL (≈ 101 µM) | 18.8 µg/mL (≈ 50.6 µM) | 18.8 µg/mL (≈ 50.6 µM) | 75 µg/mL (≈ 203 µM) | 75 µg/mL (≈ 203 µM) | 37.5 µg/mL (≈ 101 µM) | 37.5 µg/mL (≈ 101 µM) | 37.5 µg/mL (≈ 101 µM) | 37.5 µg/mL (≈ 101 µM) | 75 µg/mL (≈ 203 µM) | 18.8 µg/mL (≈ 50.6 µM) | 75 µg/mL (≈ 203 µM) | MIC (Bacillus cereus): 18.8 µg/mL (≈ 50.6 µM); MIC (Trichoderma viride): 75 µg/mL (≈ 203 µM); MIC (Rhizoctonia solani): 75 µg/mL (≈ 203 µM); MIC (Microsporum canis): 75 µg/mL (≈ 203 µM)
COc1ccc(C2SCC(=O)N2CCN2CCNCC2)cc1 (centres undefined) | 9.73 µg/mL (≈ 30.3 µM) | 4.68 µg/mL (≈ 14.6 µM) | 18.8 µg/mL (≈ 58.3 µM) | 9.37 µg/mL (≈ 29.1 µM) | 9.37 µg/mL (≈ 29.1 µM) | 9.37 µg/mL (≈ 29.1 µM) | 9.73 µg/mL (≈ 30.3 µM) | 18.8 µg/mL (≈ 58.3 µM) | 9.37 µg/mL (≈ 29.1 µM) | 9.37 µg/mL (≈ 29.1 µM) | 9.37 µg/mL (≈ 29.1 µM) | 18.8 µg/mL (≈ 58.3 µM) | 9.73 µg/mL (≈ 30.3 µM) | 9.37 µg/mL (≈ 29.1 µM) | 9.37 µg/mL (≈ 29.1 µM) | 18.8 µg/mL (≈ 58.3 µM) | 4.68 µg/mL (≈ 14.6 µM) | 18.8 µg/mL (≈ 58.3 µM) | 9.37 µg/mL (≈ 29.1 µM) | 9.37 µg/mL (≈ 29.1 µM) | MIC (Bacillus cereus): 4.68 µg/mL (≈ 14.6 µM); MIC (Trichoderma viride): 9.73 µg/mL (≈ 30.3 µM); MIC (Rhizoctonia solani): 9.73 µg/mL (≈ 30.3 µM); MIC (Microsporum canis): 18.8 µg/mL (≈ 58.3 µM)
O=C(CCl)N1CCN(CCN2C(=O)C(Cl)C2c2ccco2)CC1 (centres undefined) | 300 µg/mL (≈ 833 µM) | 75 µg/mL (≈ 208 µM) | 300 µg/mL (≈ 833 µM) | 75 µg/mL (≈ 208 µM) | 150 µg/mL (≈ 416 µM) | 150 µg/mL (≈ 416 µM) | 150 µg/mL (≈ 416 µM) | 150 µg/mL (≈ 416 µM) | 75 µg/mL (≈ 208 µM) | 150 µg/mL (≈ 416 µM) | 75 µg/mL (≈ 208 µM) | 150 µg/mL (≈ 416 µM) | 300 µg/mL (≈ 833 µM) | 75 µg/mL (≈ 208 µM) | 75 µg/mL (≈ 208 µM) | 150 µg/mL (≈ 416 µM) | 150 µg/mL (≈ 416 µM) | 300 µg/mL (≈ 833 µM) | 150 µg/mL (≈ 416 µM) | 150 µg/mL (≈ 416 µM) | MIC (Bacillus cereus): 75 µg/mL (≈ 208 µM); MIC (Trichoderma viride): 300 µg/mL (≈ 833 µM); MIC (Rhizoctonia solani): 300 µg/mL (≈ 833 µM); MIC (Microsporum canis): 150 µg/mL (≈ 416 µM)
O=C(CCl)N1CCN(CCN2C(=O)C(Cl)C2c2ccc(O)cc2)CC1 (centres undefined) | 9.37 µg/mL (≈ 24.3 µM) | 9.37 µg/mL (≈ 24.3 µM) | 18.8 µg/mL (≈ 48.5 µM) | 9.37 µg/mL (≈ 24.3 µM) | 9.37 µg/mL (≈ 24.3 µM) | 9.37 µg/mL (≈ 24.3 µM) | 9.37 µg/mL (≈ 24.3 µM) | 18.8 µg/mL (≈ 48.5 µM) | 4.68 µg/mL (≈ 12.1 µM) | 9.37 µg/mL (≈ 24.3 µM) | 9.37 µg/mL (≈ 24.3 µM) | 9.37 µg/mL (≈ 24.3 µM) | 18.8 µg/mL (≈ 48.5 µM) | 4.68 µg/mL (≈ 12.1 µM) | 9.37 µg/mL (≈ 24.3 µM) | 18.8 µg/mL (≈ 48.5 µM) | 9.37 µg/mL (≈ 24.3 µM) | 9.37 µg/mL (≈ 24.3 µM) | 9.37 µg/mL (≈ 24.3 µM) | 9.37 µg/mL (≈ 24.3 µM) | MIC (Bacillus cereus): 9.37 µg/mL (≈ 24.3 µM); MIC (Trichoderma viride): 9.37 µg/mL (≈ 24.3 µM); MIC (Rhizoctonia solani): 9.37 µg/mL (≈ 24.3 µM); MIC (Microsporum canis): 9.37 µg/mL (≈ 24.3 µM)
COc1cc(C2SCC(=O)N2CCN2CCNCC2)ccc1O (centres undefined) | 18.8 µg/mL (≈ 55.6 µM) | 9.37 µg/mL (≈ 27.8 µM) | 9.73 µg/mL (≈ 28.8 µM) | 9.37 µg/mL (≈ 27.8 µM) | 9.37 µg/mL (≈ 27.8 µM) | 9.37 µg/mL (≈ 27.8 µM) | 9.73 µg/mL (≈ 28.8 µM) | 9.73 µg/mL (≈ 28.8 µM) | 9.37 µg/mL (≈ 27.8 µM) | 4.68 µg/mL (≈ 13.9 µM) | 9.37 µg/mL (≈ 27.8 µM) | 9.73 µg/mL (≈ 28.8 µM) | 18.8 µg/mL (≈ 55.6 µM) | 9.37 µg/mL (≈ 27.8 µM) | 9.37 µg/mL (≈ 27.8 µM) | 9.73 µg/mL (≈ 28.8 µM) | 9.37 µg/mL (≈ 27.8 µM) | 18.8 µg/mL (≈ 55.6 µM) | 9.37 µg/mL (≈ 27.8 µM) | 9.37 µg/mL (≈ 27.8 µM) | MIC (Bacillus cereus): 9.37 µg/mL (≈ 27.8 µM); MIC (Trichoderma viride): 18.8 µg/mL (≈ 55.6 µM); MIC (Rhizoctonia solani): 18.8 µg/mL (≈ 55.6 µM); MIC (Microsporum canis): 18.8 µg/mL (≈ 55.6 µM)
